For twelve compounds, IC50 results are on record in US20220380371A1, “MLL1 INHIBITORS AND ANTI-CANCER AGENTS” (NOVARTIS AG, priority 2019, published 2022).

For assay [1], the target named is wild type MLL1 five-member complex (MLL1-5C) (Homo sapiens, UniProt Q03164). Briefly: MLL1 Flashplate Assay. Type of assay: biochemical. Conditions: read-out: MLL1 flash plate. As to the method: MLL1 Flashplate Assay To assess the compound potency in MLL1 Flashplate assay, compounds were serially diluted 3-fold in DMSO to obtain a total of twelve concentrations. Then the test compounds at each concentration (250 nL of each) were transferred by Mosquito into Corning #3675 384-well plate. Solutions (15 μL) of 4.2 nM wild type MLL1 five-member complex (MLL1-5C) in the assay buffer (20 mM Tris-HCl, pH 8.0, 0.01% Tween 20, 1 mM DTT, 0.01% BSA) were added to the wells. A 10 μL solution of 2.5 μM of the peptide substrate H3K4me0 (histone H3[1-21]-Biotin) and 1.25 μM ^3H-SAM in the reaction buffer was then added to initiate each reaction. The final components in the reaction solution include 2.5 nM MLL1-5C, 0.5 μM ^3H-SAM, and 1 μM H3K4me0 with varying concentration of the compounds. A positive control consisted of 2.5 nM MLL1-5C, 0.5 μM ^3H-SAM, and 1 μM substrate in the absence of the test compound, and a negative control consisted of 0.5 μM ^3H-SAM, and 1 μM substrate only. Each reaction was incubated at rt for 90 min, then stopped by addition of 5 μL per of quench solution (0.5 mM SAM in assay buffer). 25 μL of each reaction solution was transferred to FlashPlate streptavidin 384-well microplate (PerkinElmer). After at least 1 h incubation at rt, the wells were washed three times with 0.1% Tween-20 in dH2O using the BioTek plate washer. The plates were then read in MicroBeta (PerkinElmer). The radioactive readouts were then normalized based on the values coming from the positive and negative controls to give percent enzyme activities. The data were then fit to a dose response equation using the program Helios to get the IC50 values of the test compounds.

The subject of a further assay is H3K4me3 in MV4-11 cells. Briefly: MV4-11 H3K4me3 Cellular ELISA Assay. In kind it is cell-based. Conditions: Homo sapiens, MV4-11, 48 h. An outline of the steps: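 MV4-11 cells were treated for 48 h with 12-point 1:3 compound dilutions (from 10 mM stock), then histones were acid-extracted with 0.5M HCl and neutralized. H3K4me3 and total H3 were measured by HRP chemiluminescent ELISA, and inhibition versus DMSO after H3 normalization was curve-fitted for IC50.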

Another assay has as its system MV4-11 cells. As to the kind of experiment: MV4-11 6-Day Cell Growth CTG (CellTiter-Glo) Assay. The conditions noted are these: Homo sapiens, MV4-11, 144 h, MV4-11 cell growth CellTiter-Glo, 6 days. Type of assay: cell-based. An outline of the steps:
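MV4-11 AML cells (RPMI 1640, 10% FBS) seeded at 300 cells/well and exposed for 6 days at 37 °C to a 12-point, 1:3 compound series starting at 50 μM final. Viable cells read by CellTiter-Glo luminescence; percent inhibition versus DMSO-only wells fitted to dose-response curves for IC50.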
(In general: Cellular ATP, detected with luciferase, serves as a proxy for viable cell number.)

Assay [2] addresses wild type MLL1 four-member complex (MLL1-4C) (Homo sapiens, UniProt Q03164). As to the kind of experiment: MLL1 LC-MS Assay. Type of assay: biochemical. Conditions: read-out: LCMS. In short, it runs like this: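 Compound pre-incubated 20 min with MLL1-4C and SAM, then H3[1-21]-biotin (H3K4me0) substrate added; final 30 nM enzyme, 2.5 μM SAM, 10 μM peptide in Tris pH 8.0 with MgCl2, DTT, Tween 20, BSA. After 120 min at rt, TFA-quenched SAH quantified by LC-MS/MS with d4-SAH; IC50 from dose-response fit.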

Where only a bound is given, the exact number is not on record here.

In the case of `Nc1ncnc2c1ncn2Cc1c(N2CC[C@](N)(C(=O)NC3CC3)C2)ccc(F)c1CN1CCC1` [Example 70], the IC50 in assay [1] is greater than 100 nM; with H3K4me3 in MV4-11 cells, less than 1900 nM; with MV4-11 cells it was less than 2000 nM; in assay [2], 50 to 100 nM.

For the compound `Nc1ncnc2c1ncn2Cc1c(-c2cccc(C3CCCCC3)c2)cc(Cl)cc1N1CC[C@](N)(c2nn[nH]n2)C1` [Example 84], the IC50 in assay [1] was less than 60 nM; in the assay with H3K4me3 in MV4-11 cells, less than 1900 nM; with MV4-11 cells it was less than 2000 nM; in assay [2], 50 to 100 nM.

As for `Nc1ncnc2c1ncn2Cc1c(N2CC[C@](N)(c3nc[nH]n3)C2)ccc(Cl)c1Cl` [Example 85], the IC50 in assay [1] was less than 60 nM; with H3K4me3 in MV4-11 cells, less than 1900 nM; in the assay with MV4-11 cells, less than 2000 nM; in assay [2], less than 50 nM.

With `Nc1ncnc2c1ncn2Cc1c(N2CC[C@](N)(C(=O)NC3CC3)C2)ccc(Cl)c1COC(F)F` [Example 86], the IC50 in assay [1] is less than 60 nM; in the assay on H3K4me3 in MV4-11 cells it was less than 1900 nM; with MV4-11 cells, less than 2000 nM; in assay [2], less than 50 nM.

For the compound `CN(C)Cc1c(Cl)c(Cl)cc(N2CC[C@](N)(C(=O)NC3CC3)C2)c1Cn1cnc2c(N)ncnc21` [Example 88, (R)-3-amino-1-(2-((6-amino-9H-purin-9-yl)methyl)-4,5-dichloro-3-((dimethylamino)methyl)phenyl)-N-cyclopropylpyrrolidine-3-carboxamide], the IC50 in assay [1] is less than 60 nM; in the assay on H3K4me3 in MV4-11 cells, less than 1900 nM; with MV4-11 cells, less than 2000 nM; in assay [2] it was less than 50 nM.

Regarding `CCc1cc(-c2cccs2)cc(N2CC[C@](N)(C(=O)NC3CC3)C2)c1Cn1cnc2c(N)ncnc21` [Example 93], the IC50 was less than 60 nM in assay [1], less than 1900 nM with H3K4me3 in MV4-11 cells, less than 2000 nM in the assay with MV4-11 cells and less than 50 nM in assay [2].

In the case of `CCc1cc(-c2cnn(C)c2)cc(N2CC[C@](N)(C(=O)NC3CC3)C2)c1Cn1cnc2c(N)ncnc21` [Example 96], the IC50 in assay [1] is less than 60 nM; in the assay with H3K4me3 in MV4-11 cells, 1900 to 3000 nM; in the assay on MV4-11 cells, greater than 3000 nM; in assay [2] it was less than 50 nM.

Consider `CCc1cc(-c2ccccn2)cc(N2CC[C@](N)(C(=O)NC3CC3)C2)c1Cn1cnc2c(N)ncnc21` [Example 99, (R)-3-amino-1-(2-((6-amino-9H-purin-9-yl)methyl)-3-ethyl-5-(pyridin-2-yl)phenyl)-N-cyclopropylpyrrolidine-3-carboxamide], for which the IC50 in assay [1] was less than 60 nM; in the assay on H3K4me3 in MV4-11 cells, less than 1900 nM; with MV4-11 cells, less than 2000 nM; in assay [2], less than 50 nM.

On to `CCc1c(C#N)c(Cl)cc(N2CC[C@](N)(C(=O)NC3CC3)C2)c1Cn1cnc2c(N)ncnc21` [Example 101, (R)-3-amino-1-(2-((6-amino-9H-purin-9-yl)methyl)-5-chloro-4-cyano-3-ethylphenyl)-N-cyclopropylpyrrolidine-3-carboxamide], for which the IC50 in assay [1] was less than 60 nM; in the assay with H3K4me3 in MV4-11 cells, less than 1900 nM; in the assay with MV4-11 cells it was 2000 to 3000 nM; in assay [2] it was less than 50 nM.

In the case of `Nc1ncnc2c1ncn2Cc1c(N2CC[C@](N)(C(=O)NC3CC3)C2)cc(Cl)c(F)c1CN1CCOCC1` [Example 102, (R)-3-amino-1-(2-((6-amino-9H-purin-9-yl)methyl)-5-chloro-4-fluoro-3-(morpholinomethyl)phenyl)-N-cyclopropylpyrrolidine-3-carboxamide], the IC50 was less than 60 nM in assay [1], less than 1900 nM with H3K4me3 in MV4-11 cells, less than 2000 nM in the assay with MV4-11 cells and less than 50 nM in assay [2].

Consider `Nc1ncnc2c1ncn2Cc1c(N2CC[C@@](N)(CO)C2)ccc2ccccc12` [Example 106], for which the IC50 is less than 60 nM in assay [1], less than 1900 nM in the assay on H3K4me3 in MV4-11 cells, less than 2000 nM in the assay on MV4-11 cells and less than 50 nM in assay [2].

`Nc1ncnc2c1ncn2Cc1c(Br)c(Cl)c2c(c1N1CC[C@](N)(C(=O)NC3CC3)C1)OCC2` [Example 110]: the IC50 in assay [1] is less than 60 nM; with H3K4me3 in MV4-11 cells, less than 1900 nM; in the assay with MV4-11 cells, less than 2000 nM; in assay [2], less than 50 nM.
